Measurements from EP2706118A1, “Method for the production of primary amines” (BASF SE, priority 2012, dated 2014).

Experiment: Solubility in the aqueous reaction mixture (remark in reaction conditions)
Assay type: physicochemical
Details: ~10 mM in 20 mM bicine-buffer (pH 8.8), used an emulsion
Description: • ~10 mM BDG-Aldehyde (very low solubility, used an emulsion) • 10 mM L-alanine • 20 mM bicine-buffer (pH 8.8) • Cv ω-TA (0.75 mg) • Total volume: 1 ml • c) The conversion of BDG-alcohol to BDG-amine by ADH + ω-TAs was confirmed by LC-MS (Figure 3 C) and thin layer chromatography (Figure 4, lanes 1-3).

solubility: very low
SMILES: CCCCOCCOCC=O [BDG-Aldehyde]
